Data on 21 compounds can be found in patent US8129398B2 (priority 2008, dated 2012).

In the test the target is T1, HIV-integrase (Human immunodeficiency virus type 1 group M subtype B, UniProt P12497).
T1 construct: Recombinant integrase (0.26 ng) was incubated with the beads
Briefly: HIV-Integrase Inhibition Activity (SPA bead integration assay with P33 labeled target DNA). The following applies: recombinant integrase, class symbols; read-out: in vitro activity. The test is classed as biochemical. Here is the method: HIV-Integrase Inhibition Activity. To evaluate in-vitro activity against HIV-integrase, 5 pmole of biotin labeled substrate DNA was bound to 100 μg of Streptavidin coated PVT SPA beads (Amersham Pharmacia Biotech). Recombinant integrase (0.26 ng) was incubated with the beads for 90 min at 37° C. Unbound enzyme was removed by washing the complex followed by addition of inhibitors and 0.1 fmol of P33 labeled target DNA. The reaction was stopped by adding EDTA to a final concentration of 10 mM. Samples were counted in TopCountNXT (Packard) and the CPM was used as a measure of integration. The reaction condition was as described in A. Engelman and R. Craigie, J. Virol. 69, 5908-5911 (1995). The sequences of substrate and target DNA were described in Nucleic Acid Research 22, 1121-1122 (1994). Activity equal to A refers to a compound having IC50=<10 nM while B and C denote compounds having […] and IC50>100 nM respectively.
For the compound `CN(C(=O)C(=O)N1CCCC1)C12CCC(CC1)Cn1c2nc(C(=O)NCc2ccc(F)cc2)c(O)c1=O` [Example 153, N-(4-Fluorobenzyl)-3-hydroxy-10-(methyl(oxo(1-pyrrolidinyl)acetyl)amino)-4-oxo-4,6,7,8,9,10-hexahydro-7,10-ethanopyrimido[1,2-a]azepine-2-carboxamide], the IC50 is < 10 nM.

Turning to `CO[C@H]1C[C@@H](C(=O)NC23CCC(CC2)Cn2c3nc(C(=O)NCc3ccc(F)c(C)c3)c(O)c2=O)N(C(=O)c2nnc(C)o2)C1` [Example 297, 7,10-Ethanopyrimido[1,2-a]azepine-2-carboxamide, N-[(4-fluoro-3-methylphenyl)methyl]-4,6,7,8,9,10-hexahydro-3-hydroxy-10-[[[(2S,4S)-4-methoxy-1-[(5-methyl-1,3,4-oxadiazol-2-yl)carbonyl]-2-pyrrolidinyl]carbonyl]amino]-4-oxo-], the IC50 was < 10 nM.

As for `COC(=O)c1cn(C(C)(C)C(=O)NC23CCC(CC2)Cn2c3nc(C(=O)NCc3ccc(F)c(C)c3)c(O)c2=O)nn1` [Example 284, 1H-1,2,3-Triazole-4-carboxylic acid, 1-[2-[[2-[[[(4-fluoro-3-methylphenyl)methyl]amino]carbonyl]-6,7,8,9-tetrahydro-3-hydroxy-4-oxo-7,10-ethanopyrimido[1,2-a]azepin-10(4H)-yl]amino]-1,1-dimethyl-2-oxoethyl]-, methyl ester], the IC50 is < 10 nM.

On to `CC(C)OC(=O)N1CCCC1C(=O)NC12CCC(CC1)Cn1c2nc(C(=O)NCc2ccc(F)cc2)c(O)c1=O` (stereo not drawn) [Example 405], for which the IC50 was < 10 nM.

As to `Cn1nccc1C(=O)NC12CCC(CC1)Cn1c2nc(C(=O)NCc2ccc(F)cc2)c(O)c1=O` [Example 247, 7,10-Ethanopyrimido[1,2-a]azepine-2-carboxamide, N-[(4-fluorophenyl)methyl]-4,6,7,8,9,10-hexahydro-3-hydroxy-10-[[(1-methyl-1H-pyrazol-5-yl)carbonyl]amino]-4-oxo-], the IC50 is < 10 nM.

Regarding `CC(C)S(=O)(=O)N1CCCC1C(=O)NC12CCC(CC1)Cn1c2nc(C(=O)NCc2ccc(F)cc2)c(O)c1=O` (stereo not drawn) [Example 402], the IC50 is < 10 nM.

Take `CN(C)C(=O)C(=O)NC12CCC(CC1)Cn1c2nc(C(=O)NCc2ccc(F)c(C(F)F)c2)c(O)c1=O` [Example 124, N′-(2-((3-(Difluoromethyl)-4-fluorobenzyl)carbamoyl)-3-hydroxy-4-oxo-6,7,8,9-tetrahydro-7,10-ethanopyrimido[1,2-a]azepin-10(4H)-yl)-N,N-dimethylethanediamide]: the IC50 was < 10 nM.

Consider `CC(=O)NC12CCC(CC1)n1c2nc(C(=O)NCc2ccc(F)cc2)c(O)c1=O` [Example 12, 6,9-Ethano-4H-pyrido[1,2-a]pyrimidine-2-carboxamide, 9-(acetylamino)-N-[(4-fluorophenyl)methyl]-6,7,8,9-tetrahydro-3-hydroxy-4-oxo-], for which the IC50 is < 10 nM.

Consider `COC(=O)C(=O)NC12CCC(CCn3c1nc(C(=O)NCc1ccc(F)cc1)c(O)c3=O)C2` (stereo not drawn) [Example 210, Acetic acid, [[2-[[[(4-fluorophenyl)methyl]amino]carbonyl]-7,8,9,10-tetrahydro-3-hydroxy-4-oxo-8,1′-methano-4H-pyrimido[1,2-a]azocin-11(6H)-yl]amino]oxo-, methyl ester], for which the IC50 was < 10 nM.

As for `CN(C)C(=O)C(=O)NC12CCC(CC1)Cn1c2nc(C(=O)NCc2ncc(F)cc2F)c(O)c1=O` [Example 123, N′-(2-(((3,5-Difluoro-2-pyridinyl)methyl)carbamoyl)-3-hydroxy-4-oxo-6,7,8,9-tetrahydro-7,10-ethanopyrimido[1,2-a]azepin-10(4H)-yl)-N,N-dimethylethanediamide], the IC50 is 10 to 100 nM.

Regarding `Cc1cc(C(=O)NC23CCC(CC2)Cn2c3nc(C(=O)NCc3ccc(F)cc3-n3ncnc3C)c(O)c2=O)no1` [Example 37, N-(4-Fluoro-2-(5-methyl-1H-1,2,4-triazol-1-yl)benzyl)-3-hydroxy-10-(((5-methyl-3-isoxazolyl)carbonyl)amino)-4-oxo-4,6,7,8,9,10-hexahydro-7,10-ethanopyrimido[1,2-a]azepine-2-carboxamide], the IC50 is 10 to 100 nM.

For the compound `CN(C)C(=O)C(=O)NC12CCC(CC1)Cn1c2nc(C(=O)NCC2CC2)c(O)c1=O` [Example 352], the IC50 is > 100 nM.

For the compound `CNC(=S)NC12CCC(CC1)Cn1c2nc(C(=O)NCc2ccc(F)cc2)c(O)c1=O` [Example 331, 7,10-Ethanopyrimido[1,2-a]azepine-2-carboxamide, N-[(4-fluorophenyl)methyl]-4,6,7,8,9,10-hexahydro-3-hydroxy-10-[[(methylamino)thioxomethyl]amino]-4-oxo-], the IC50 is < 10 nM.

In the case of `CN(CC1CCCO1)C(=O)C(=O)NC12CCC(CC1)Cn1c2nc(C(=O)NCc2ccc(F)cc2)c(O)c1=O` (stereo not drawn) [Example 94, N′-(2-((4-Fluorobenzyl)carbamoyl)-3-hydroxy-4-oxo-6,7,8,9-tetrahydro-7,10-ethanopyrimido[1,2-a]azepin-10(4H)-yl)-N-methyl-N-(tetrahydro-2-furanylmethyl)ethanediamide], the IC50 is < 10 nM.

Turning to `CN(C)C(=O)C(=O)NC12CCC(CC1)Cn1c2nc(C(=O)NCc2ccc(N)cc2)c(O)c1=O` [Example 385], the IC50 was 10 to 100 nM.

With `CN(C)C(=O)C(=O)NC12CCC(CC1)Cn1c2nc(C(=O)NCCC2CCCN2C)c(O)c1=O` (stereo not drawn) [Example 336], the IC50 is > 100 nM.

For `CN(C)CC(=O)NC12CCC(CC1)n1c2nc(C(=O)NCc2ccc(F)cc2)c(O)c1=O` [Example 14, 6,9-Ethano-4H-pyrido[1,2-a]pyrimidine-2-carboxamide, 9-[[(dimethylamino)acetyl]amino]-N-[(4-fluorophenyl)methyl]-6,7,8,9-tetrahydro-3-hydroxy-4-oxo-], the IC50 is 10 to 100 nM.

As to `CNC(=O)c1cn(C(C)(C)C(=O)NC23CCC(CC2)Cn2c3nc(C(=O)NCc3ccc(F)c(C)c3)c(O)c2=O)nn1` [Example 286, 7,10-Ethanopyrimido[1,2-a]azepine-2-carboxamide, N-[(4-fluoro-3-methylphenyl)methyl]-4,6,7,8,9,10-hexahydro-3-hydroxy-10-[[2-methyl-2-[4-[(methylamino)carbonyl]-1H-1,2,3-triazol-1-yl]-1-oxopropyl]amino]-4-oxo-], the IC50 was < 10 nM.

In the case of `CN(C)C(=O)C(=O)NC12CCC(CC1)Cn1c2nc(C(=O)NCc2ccc(F)cc2)c(O)c1=O` [Example 57, N′-(2-((4-Fluorobenzyl)carbamoyl)-3-hydroxy-4-oxo-6,7,8,9-tetrahydro-7,10-ethanopyrimido[1,2-a]azepin-10(4H)-yl)-N,N-dimethylethanediamide], the IC50 is < 10 nM.

As to `CN(C(=O)OCc1ccccc1)C1c2nc(C(=O)NCc3ccc(F)cc3)c(O)c(=O)n2CC2CCC1C2` (stereo not drawn) [Example 8], the IC50 was < 10 nM.

`Cc1cc(CNC(=O)c2nc3n(c(=O)c2O)CC2CCC3(NC(=O)C(=O)N(C)C)CC2)ccc1F` [Example 113, N′-(2-((4-Fluoro-3-methylbenzyl)carbamoyl)-3-hydroxy-4-oxo-6,7,8,9-tetrahydro-7,10-ethanopyrimido[1,2-a]azepin-10(4H)-yl)-N,N-dimethylethanediamide]: the IC50 was < 10 nM.
